Literature values, collected in patent US20200268651A1, “STABLE VITAMIN B12 LIQUID FORMULATIONS” (priority 2019, published 2020).

Experiments:
[1] = ascorbic acid (AH2), studied at pH 1.0-8.0
[2] = long-term use

Q: With `C/C1=C2/[N-][C@H]([C@H](CC(N)=O)[C@@]2(C)CCC(=O)NC[C@@H](C)OP(=O)([O-])O[C@H]2[C@@H](O)[C@@H](n3cnc4cc(C)c(C)cc43)O[C@@H]2CO)[C@]2(C)N=C(/C(C)=C3N=C(/C=C4N=C1[C@@H](CCC(N)=O)C\4(C)C)[C@@H](CCC(N)=O)[C@]\3(C)CC(N)=O)[C@@H](CCC(N)=O)[C@]2(C)CC(N)=O.[Co+3].[OH-]` [hydroxocobalamin] as the compound, how does the “pH of maximum rate of degradation in the presence of ascorbic acid” value [1] read?
A: 5.0 pH

Q: Which “people with reduced serum levels of vitamin B12” value [2] does the source give for `CN(C)C(=N)N=C(N)N` [metformin] here?
A: up to 30%

Q: Which “pH of maximum rate of degradation in the presence of ascorbic acid” value [1] does the source give for cyanocobalamin here?
A: 5.0 pH
